Laboratory results: US10166216B2 (Rigel Pharmaceuticals, Inc., priority 2006, dated 2019)
pIC50: −log10 of the molar value.

Molecular target: Axl (Homo sapiens (Human), UniProt P30530)
Experiment: Phospho-Akt in-cell Western assay (Axl-antibody cross-linking stimulation)
Format: cell-based
Settings: inhibition of Axl activity
In short: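 HeLa cells on poly-L-lysine, starved 24 hrs with Axl/Fc, pre-treated with compound 1 hr at 37° C., then stimulated 5 min with Axl primary/secondary antibody cluster. Fixed cells probed for phospho-Akt by chemiluminescent in-cell Western; signal normalized to crystal violet cell number.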

[1] = phospho-Akt in-cell Western assay

Chain of Axl (P30530 26-894): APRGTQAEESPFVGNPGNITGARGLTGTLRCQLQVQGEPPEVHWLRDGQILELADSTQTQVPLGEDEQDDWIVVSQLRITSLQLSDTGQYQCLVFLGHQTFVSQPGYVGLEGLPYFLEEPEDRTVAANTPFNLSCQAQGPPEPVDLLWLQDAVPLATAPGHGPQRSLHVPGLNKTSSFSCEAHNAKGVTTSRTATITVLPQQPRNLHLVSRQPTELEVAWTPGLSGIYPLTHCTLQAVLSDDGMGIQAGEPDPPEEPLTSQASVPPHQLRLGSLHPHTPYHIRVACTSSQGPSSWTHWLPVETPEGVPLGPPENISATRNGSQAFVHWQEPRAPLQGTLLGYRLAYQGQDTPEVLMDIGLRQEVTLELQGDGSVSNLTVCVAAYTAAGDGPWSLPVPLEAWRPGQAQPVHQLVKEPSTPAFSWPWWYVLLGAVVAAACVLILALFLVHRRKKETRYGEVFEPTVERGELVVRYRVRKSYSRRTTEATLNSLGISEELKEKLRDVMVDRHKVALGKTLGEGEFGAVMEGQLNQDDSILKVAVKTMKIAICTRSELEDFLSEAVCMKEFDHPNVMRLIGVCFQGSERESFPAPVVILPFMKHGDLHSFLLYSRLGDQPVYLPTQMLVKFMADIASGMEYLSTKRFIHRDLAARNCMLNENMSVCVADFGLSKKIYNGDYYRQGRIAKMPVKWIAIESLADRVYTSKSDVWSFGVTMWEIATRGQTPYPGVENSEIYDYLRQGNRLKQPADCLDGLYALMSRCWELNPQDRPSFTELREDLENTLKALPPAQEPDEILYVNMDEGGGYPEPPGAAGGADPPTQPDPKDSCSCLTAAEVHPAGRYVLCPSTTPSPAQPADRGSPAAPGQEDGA

SMILES: COc1cc2c(-n3nc(Nc4ccc(N5CCN(C6CC7CCC6C7)CC5)c(F)c4)nc3N)ncnc2cc1O (centres unmarked) [Compound 106, 4-(5-amino-3-(4-(4-(bicyclo[2.2.1]heptan-2-yl)piperazin-1-yl)-3-fluorophenylamino)-1H-1,2,4-triazol-1-yl)-6-methoxyquinazolin-7-ol]
- pIC50 [1]: > 6.00

SMILES: COc1cc2ncnc(-n3nc(Nc4ccc(N5CCN(C(C)=O)CC5)cc4)nc3N)c2cc1OC [Compound 107, 1-(4-(4-(5-amino-1-(6,7-dimethoxyquinazolin-4-yl)-1H-1,2,4-triazol-3-ylamino)phenyl)piperazin-1-yl)ethanone]
- pIC50 [1]: > 6.00

SMILES: CN1CCN(c2ccc(Nc3nc(N)n(-c4cc5c(nn4)-c4ccccc4CC5)n3)cc2)CC1 [Compound 108, 1-(5,6-dihydrobenzo[h]cinnolin-3-yl)-N^3-(4-(4-methylpiperazin-1-yl)phenyl)-1H-1,2,4-triazole-3,5-diamine]
- pIC50 [1]: > 6.00

SMILES: COc1cc2c(-n3nc(Nc4ccc(N5CCN(C6CCCCCC6)CC5)cc4)nc3N)ncnc2cc1O [Compound 109, 4-(5-amino-3-(4-(4-cycloheptylpiperazin-1-yl)phenylamino)-1H-1,2,4-triazol-1-yl)-6-methoxyquinazolin-7-ol]
- pIC50 [1]: > 6.00

SMILES: COc1cc2ncnc(-n3nc(Nc4ccc(N5CCN(C6CCCCCC6)CC5)cc4)nc3N)c2cc1OC [Compound 110, N^3-(4-(4-cycloheptylpiperazin-1-yl)phenyl)-1-(6,7-dimethoxyquinazolin-4-yl)-1H-1,2,4-triazole-3,5-diamine]
- pIC50 [1]: > 6.00

SMILES: COc1cc2ncnc(-n3nc(Nc4ccc(N5CCN(C6C7CC8CC(C7)CC6C8)CC5)cc4)nc3N)c2cc1OC (centres unmarked) [Compound 111]
- pIC50 [1]: < 4.70

SMILES: COc1cc2ncnc(-n3nc(Nc4ccc(N5CCN(C6CCCCCCC6)CC5)cc4)nc3N)c2cc1OC [Compound 112, N^3-(4-(4-cyclooctylpiperazin-1-yl)phenyl)-1-(6,7-dimethoxyquinazolin-4-yl)-1H-1,2,4-triazole-3,5-diamine]
- pIC50 [1]: < 4.70

SMILES: CN1CCN(c2ccc(Nc3nc(N)n(-c4nccc5[nH]c(=O)ccc45)n3)cc2F)CC1 [Compound 113, 5-(5-amino-3-(3-fluoro-4-(4-methylpiperazin-1-yl)phenylamino)-1H-1,2,4-triazol-1-yl)-1,6-naphthyridin-2(1H)-one]
- pIC50 [1]: > 6.00

SMILES: COc1cc2ncnc(-n3nc(Nc4ccc(N5CCN(C6CCCCC6)CC5)c(Cl)c4)nc3N)c2cc1OC [Compound 114, N^3-(3-chloro-4-(4-cyclohexylpiperazin-1-yl)phenyl)-1-(6,7-dimethoxyquinazolin-4-yl)-1H-1,2,4-triazole-3,5-diamine]
- pIC50 [1]: > 6.00

SMILES: Nc1nc(Nc2ccc(N3CCN(C4CCCCC4)CC3)cc2)nn1-c1cc2c(nn1)-c1ccccc1CC2 [Compound 115, N^3-(4-(4-cyclohexylpiperazin-1-yl)phenyl)-1-(5,6-dihydrobenzo[h]cinnolin-3-yl)-1H-1,2,4-triazole-3,5-diamine]
- pIC50 [1]: 5.00 to 6.00

SMILES: CN1CCN(c2ccc(Nc3nc(N)n(-c4ncnc5cc(O)c(O)cc45)n3)cc2F)CC1 [Compound 116, 4-(5-amino-3-(3-fluoro-4-(4-methylpiperazin-1-yl)phenylamino)-1H-1,2,4-triazol-1-yl)quinaoline-6,7-diol]
- pIC50 [1]: 5.00 to 6.00

SMILES: COc1cc2c(-n3nc(Nc4ccc(N5CCN(C)CC5)c(F)c4)nc3N)ncnc2cc1O [Compound 117, 4-(5-amino-3-(3-fluoro-4-(4-methylpiperazin-1-yl)phenylamino)-1H-1,2,4-triazol-1-yl)-6-methoxyquinazolin-7-ol]
- pIC50 [1]: > 6.00

SMILES: COc1cc2ncnc(-n3nc(Nc4ccc(N5CCN(C6C7CCCC6CCC7)CC5)cc4)nc3N)c2cc1OC (centres unmarked) [Compound 118, N^3-(4-(4-(bicyclo[3.3.1]nonan-9-yl)piperazin-1-yl)phenyl)-1-(6,7-dimethoxyquinazolin-4-yl)-1H-1,2,4-triazole-3,5-diamine]
- pIC50 [1]: 5.00 to 6.00

SMILES: CCN1CCN(c2cc(Nc3nc(N)n(-c4ncnc5cc(OC)c(OC)cc45)n3)ccc2Cl)CC1 [Compound 119, N-(4-chloro-3-(4-ethylpiperazin-1-yl)phenyl)-1-(6,7-dimethoxyquinazolin-4-yl)-1H-1,2,4-triazole-3,5-diamine]
- pIC50 [1]: 5.00 to 6.00

SMILES: COc1cc2ncnc(-n3nc(Nc4ccc(Cl)c(N5CCN(C(C)=O)CC5)c4)nc3N)c2cc1OC [Compound 120, 1-(4-(5-(5-amino-1-(6,7-dimethoxyquinazolin-4-yl)-1H-1,2,4-triazol-3-ylamino)-2-chlorophenyl)piperazin-1-yl)ethanone]
- pIC50 [1]: < 4.70

SMILES: COc1cc2ncnc(-n3nc(Nc4ccc(N5CCN(C)CC5)c(C(N)=O)c4)nc3N)c2cc1OC [Compound 121, 5-(5-amino-1-(6,7-dimethoxyquinazolin-4-yl)-1H-1,2,4-triazol-3-ylamino)-2-(4-methylpiperazin-1-yl)benzamide]
- pIC50 [1]: 5.00 to 6.00

SMILES: COc1cc2ncnc(-n3nc(Nc4ccc(N5CCN(C6CCCCC6)CC5)c(F)c4)nc3N)c2cc1OC [Compound 122, N^3-(4-(4-cyclohexylpiperazin-1-yl)-3-fluorophenyl)-1-(6,7-dimethoxyquinazolin-4-yl)-1H-1,2,4-triazole-3,5-diamine]
- pIC50 [1]: > 6.00

SMILES: COc1cc2ncnc(-n3nc(Nc4ccc(N5CCN(C6CC7CCC6C7)CC5)c(F)c4)nc3N)c2cc1OC (centres unmarked) [Compound 123, N^3-(4-(4-(bicyclo[2.2.1]heptan-2-yl)piperazin-1-yl)-3-fluorophenyl)-1-(6,7-dimethoxyquinazolin-4-yl)-1H-1,2,4-triazole-3,5-diamine]
- pIC50 [1]: < 4.70

SMILES: COc1cc2ncnc(-n3nc(Nc4ccc(N5CCN(C6CC7CCCC76)CC5)cc4)nc3N)c2cc1OC (centres unmarked) [Compound 124, N^3-(4-(4-(bicyclo[3.2.0]heptan-6-yl)piperazin-1-yl)phenyl)-1-(6,7-dimethoxyquinazolin-4-yl)-1H-1,2,4-triazole-3,5-diamine]
- pIC50 [1]: < 4.70

SMILES: COc1cc2ccnc(-n3nc(Nc4ccc(N5CCN(C6CC7CCC6C7)CC5)cc4)nc3N)c2cc1OC (centres unmarked) [Compound 125, N^3-(4-(4-(bicyclo[2.2.1]heptan-2-yl)piperazin-1-yl)phenyl)-1-(6,7-dimethoxyisoquinolin-1-yl)-1H-1,2,4-triazole-3,5-diamine]
- pIC50 [1]: > 6.00

SMILES: COc1cc2ccnc(-n3nc(Nc4ccc(N5CCN(C6CCCCCC6)CC5)cc4)nc3N)c2cc1OC [Compound 126, N^3-(4-(4-cycloheptylpiperazin-1-yl)phenyl)-1-(6,7-dimethoxyisoquinolin-1-yl)-1H-1,2,4-triazole-3,5-diamine]
- pIC50 [1]: > 6.00

SMILES: Nc1nc(Nc2ccc(N3CCN(C4CC5CCC4C5)CC3)cc2)nn1-c1ncnc2sccc12 (centres unmarked) [Compound 127, N^3-(4-(4-(bicyclo[2.2.1]heptan-2-yl)piperazin-1-yl)phenyl)-1-(thieno[2,3-d]pyrimidin-4-yl)-1H-1,2,4-triazole-3,5-diamine]
- pIC50 [1]: > 6.00

SMILES: Nc1nc(Nc2ccc(N3CCN(C4CC5CCC4C5)CC3)cc2)nn1-c1ncnc2ccsc12 (centres unmarked) [Compound 128, N^3-(4-(4-(bicyclo[2.2.1]heptan-2-yl)piperazin-1-yl)phenyl)-1-(thieno[3,2-d]pyrimidin-4-yl)-1H-1,2,4-triazole-3,5-diamine]
- pIC50 [1]: > 6.00

SMILES: Nc1nc(Nc2ccc(N3CCN(C4CC5CCC4C5)CC3)cc2)nn1-c1ncnc2cc(-c3ccccc3)sc12 (centres unmarked) [Compound 129, N^3-(4-(4-(bicyclo[2.2.1]heptan-2-yl)piperazin-1-yl)phenyl)-1-(6-phenylthieno[3,2-d]pyrimidin-4-yl)-1H-1,2,4-triazole-3,5-diamine]
- pIC50 [1]: 5.00 to 6.00

SMILES: Nc1nc(Nc2ccc(N3CCN(C4CC5CCC4C5)CC3)cc2)nn1-c1nccc2occc12 (centres unmarked) [Compound 131, N^3-(4-(4-(bicyclo[2.2.1]heptan-2-yl)piperazin-1-yl)phenyl)-1-(furo[3,2-c]pyridin-4-yl)-1H-1,2,4-triazole-3,5-diamine]
- pIC50 [1]: > 6.00

SMILES: Nc1nc(Nc2ccc(N3CCN(C4CC5CCC4C5)CC3)cc2)nn1-c1ncnc2sc3c(c12)CCC3 (centres unmarked) [Compound 132, N^3-(4-(4-(bicyclo[2.2.1]heptan-2-yl)piperazin-1-yl)phenyl)-1-(6,7-dihydro-5H-cyclopenta[4,5]thieno[2,3-d]pyrimidin-4-yl)-1H-1,2,4-triazole-3,5-diamine]
- pIC50 [1]: 5.00 to 6.00

SMILES: Cc1csc2c(-n3nc(Nc4ccc(C5CCN(C6CC7CCC6C7)CC5)cc4)nc3N)nc(Cl)nc12 (centres unmarked) [Compound 134, N^3-(4-(1-(bicyclo[2.2.1]heptan-2-yl)piperidin-4-yl)phenyl)-1-(2-chloro-7-methylthieno[3,2-d]pyrimidin-4-yl)-1H-1,2,4-triazole-3,5-diamine]
- pIC50 [1]: > 6.00

SMILES: Nc1nc(Nc2ccc(N3CCN(C4CC5CCC4C5)CC3)cc2)nn1-c1nc(C(F)(F)F)nc2ccccc12 (centres unmarked) [Compound 136, N^3-(4-(4-(bicyclo[2.2.1]heptan-2-yl)piperazin-1-yl)phenyl)-1-(2-(trifluoromethyl)quinazolin-4-yl)-1H-1,2,4-triazole-3,5-diamine]
- pIC50 [1]: 5.00 to 6.00

SMILES: Cc1nc(-n2nc(Nc3ccc(N4CCN(C5CC6CCC5C6)CC4)cc3)nc2N)c2c(C)c(C)sc2n1 (centres unmarked) [Compound 137, N^3-(4-(4-(bicyclo[2.2.1]heptan-2-yl)piperazin-1-yl)phenyl)-1-(2,5,6-trimethylthieno[2,3-d]pyrimidin-4-yl)-1H-1,2,4-triazole-3,5-diamine]
- pIC50 [1]: 5.00 to 6.00

SMILES: Cc1sc2ncnc(-n3nc(Nc4ccc(N5CCN(C6CC7CCC6C7)CC5)cc4)nc3N)c2c1C (centres unmarked) [Compound 138, N^3-(4-(4-(bicyclo[2.2.1]heptan-2-yl)piperazin-1-yl)phenyl)-1-(5,6-dimethylthieno[2,3-d]pyrimidin-4-yl)-1H-1,2,4-triazole-3,5-diamine]
- pIC50 [1]: 5.00 to 6.00

SMILES: Cc1csc2c(-n3nc(Nc4ccc(N5CCN(C6CC7CCC6C7)CC5)c(F)c4)nc3N)nc(Cl)nc12 (centres unmarked) [Compound 140, N^3-(4-(4-(bicyclo[2.2.1]heptan-2-yl)piperazin-1-yl)-3-fluorophenyl)-1-(2-chloro-7-methylthieno[3,2-d]pyrimidin-4-yl)-1H-1,2,4-triazole-3,5-diamine]
- pIC50 [1]: 5.00 to 6.00

SMILES: COc1ccc(Nc2nc(N)n(-c3ccccn3)n2)cc1 [Compound 142, N^3-(4-methoxyphenyl)-1-(pyridin-2-yl)-1H-1,2,4-triazole-3,5-diamine]
- pIC50 (Hela cells, phospho-Akt readout, Table 5, formula (Ia3)): < 4.70
